From US11716994B2, “Combinations of Yersinia entomophaga and pesticides or other substances” (priority 2017, dated 2023)
Values joined by “and” are separate entries in the source; they are usually repeats but may differ in a detail not shown here. Equal entries are not always repeated. Where two headings read alike, the source gives them in different places.

Legend:
Yersinia entomophaga = test: CFU counts after exposure of Yersinia entomophaga to insecticides; type: cell-based; settings: 1 hour contact
Excerpt: To test combinations of Yersinia entomophaga and pesticides for their ability to produce a pesticidal effect, or an effect on plant growth or yield, we first put various insecticides in contact with Yersinia to identify insecticides that had minimal toxicity to Yersinia entomophaga. The logic was that, if Yersinia entomophaga is to function well in combination with a chemical insecticide, the chemical insecticide would ideally have low or no effect on the ability of Yersinia entomophaga to survive, grow and/or to function.
To perform this study, we selected amounts of various insecticides based on the percent of the specific insecticide in the insecticide composition obtained from a manufacturer. We also considered the application rate of the particular insecticide, as recommended by the manufacturer. […] Generally, the 1× amount was considered possibly the lowest amount of insecticide that may be considered as an effective amount for use in the combinations disclosed herein. For each insecticide, we also used a higher amount of insecticide (generally a 5× or 10× amount).
The 1× and 5×/10× amounts of each insecticide were added to tubes along with 1 ml of ethyl acetate. The tubes were mixed until the insecticides dissolved. The tubes were left open in a fume hood overnight to allow the ethyl acetate to evaporate. The insecticide remained in the tubes, as a solid coat on the interior surface of the tubes.
A growing culture of Yersinia entomophaga, grown in LB medium, was diluted and 1 ml of the diluted culture was added to each tube containing the dried insecticide. The tubes were mixed and then left on the bench top for 1 hour. Then, 100 μl from each tube was plated onto LB plates in triplicate in CFU assays. Plates were incubated at 25° C. for 48 hours and colonies were counted.

corn earworm = test: Leaf disk mortality assay, Y. entomophaga cells with chemical insecticides; type: in vivo; settings: for mortality at 18 µg/mL: Helicoverpa zea, foliar; for % Mort. Chem.: Chlorantraniliprole 18 mg/L
Description: (§1) 50 μl suspensions of either acetone (controls and Y. entomophaga alone treatments) or of thiodicarb (Sigma 34375) at a concentration of 140 mg/L in acetone were then dropped onto each cabbage disk. These were set to dry for 1 hr. After the disks had dried, one 2nd instar corn earworm was added to each disk. A total of 12 insects were evaluated for each treatment.
as §1, with “chlorantraniliprole” for “thiodicarb”, “32510)” for “34375)”, “18” for “140”, “24” for “12”

cabbage looper [1] = tested on: cabbage looper
tobacco budworm [2] = tested on: tobacco budworm
cabbage looper [3] = test: whole plant or invertebrate; settings: Trichoplusia ni, foliar
tobacco budworm [4] = test: whole plant or invertebrate; settings: Heliothis virescens, foliar
western flower thrips = test: Leaf disk mortality assay, Y. entomophaga cells with chemical insecticides; type: in vivo; settings: for mortality at 100 µg/mL: Frankliniella occidentalis, foliar; for mortality at 100 µg/mL / LT50 (95% confidence intervals) in days: adults, imidacloprid 100 mg/L; for % Mort. Chem.: Imidacloprid 100 mg/L
Description: These were set to dry for 1 hr. After the disks had dried, two were placed in individual cups and 12 adult western flower thrips were added. This experiment was repeated and a total of 24 insects were evaluated for each treatment.

Colorado potato beetle [5] = settings: imidacloprid 0.56 mg/L
Description: To produce cell free filtrates, cultures of Yersinia entomophaga grown in LB medium were centrifuged at 11,448 (g) for 10 minutes. The supernatant was decanted from the centrifuged pellet and filtered through a 0.22 μm filter. Assays were performed to determine concentrations of Yen-TC (toxin complex) using ELISA, and chitinase by measuring chitinase activity on specific substrates. […] This was done to estimate relative potency of the cell free filtrates. Insects were first pre-screened with a range of dilutions of cell free filtrates to select a concentration that provided moderate activity. […] Based on these initial screens, undiluted cell free filtrate was used for cabbage looper, fall armyworm, black cutworm, and Colorado potato beetle. […] In each of the Examples below, this is expressed as 1%.
Tomato leaf disks were dipped in either acetone (controls and Y. entomophaga alone treatments) or thiacloprid (Sigma 37905) at 1 mg/L in acetone. These were set to dry for 1 hr. […] After the tomato disks had dried for 1 hr, a single 3rd instar Colorado potato beetle was added to each individual cabbage disk. A total of 20 insects were evaluate for each treatment. Insects were observed daily and scored as live or dead.

Colorado potato beetle [6] = test: Tomato leaf disk mortality assay, Y. entomophaga cells with chemical insecticides; settings: for mortality at 0.56 µg/mL: Leptinotarsa decemlineata, in Solanum lycopersicum, foliar
[7] = 24 h, read-out: % Mortality (1DAT)
[8] = 48 h, read-out: % Mortality (2DAT)

Question: Which “Average CFU” value (Yersinia entomophaga; 0.15 mg insecticide) does the source give for `CNC(=O)c1cc(Cl)cc(C)c1NC(=O)c1cc(Br)nn1-c1ncccc1Cl` [Chlorantraniliprole] here?
Answer: 523 CFU

Question: What about the “Average CFU” value (Yersinia entomophaga; 2.0 mg insecticide) of the same molecule?
Answer: 387 CFU

Question: And the “LT50 (95% confidence intervals) in days” value (corn earworm; 2nd instar, chlorantraniliprole 18 mg/L, isolate O43NEW 1×10^5 cfu/mL)?
Answer: 3.29 (2.85-3.77) days

Question: What about the mortality at 18 µg/mL (corn earworm; 24 h, 2nd instar, chlorantraniliprole 18 mg/L, isolate O43NEW 1×10^5 cfu/mL, read-out: % Mortality (1DAT)) of the same molecule?
Answer: 0%

Question: What about the mortality at 18 µg/mL (corn earworm; 48 h, 2nd instar, chlorantraniliprole 18 mg/L, isolate O43NEW 1×10^5 cfu/mL, read-out: % Mortality (2DAT)) of the same molecule?
Answer: 0%

Question: And the “% Mort. Chem.” value (corn earworm; corn earworm, 2 DAT (row with O43NEW 1 × 10^3))?
Answer: 0%

Question: What about the “% Mort. Chem.” value (corn earworm; corn earworm, 2 DAT (row with O43NEW 1 × 10^5)) of the same molecule?
Answer: 0%

Question: What about the “LT50 Chem.” value (corn earworm; corn earworm, Chlorantraniliprole alone 18 mg/L) of the same molecule?
Answer: 3.29 days and 3.44 days

Question: And the “% Mort. Chem.” value (cabbage looper [1]; cabbage looper, Chlorantraniliprole 18 mg/L, 1 DAT)?
Answer: 8%

Question: And the “LT50 Chem.” value (cabbage looper [1]; cabbage looper, Chlorantraniliprole alone 18 mg/L)?
Answer: 2.39 days

Question: And the “% Mort. Chem.” value (cabbage looper [1]; in vivo)?
Answer: 38%

Question: What about the “LT50 (95% confidence intervals) in days” value (cabbage looper [1]; in vivo) of the same molecule?
Answer: 2.39 (2.10-2.70) days

Question: And the “LT50 (95% confidence intervals) in days” value (tobacco budworm [2]; in vivo)?
Answer: 2.20 (1.91-2.53) days

Question: And the “% Mort. Chem.” value (tobacco budworm [2]; tobacco budworm, Chlorantraniliprole 18 mg/L, 1 DAT)?
Answer: 8%

Question: What about the “LT50 Chem.” value (tobacco budworm [2]; tobacco budworm, Chlorantraniliprole alone 18 mg/L) of the same molecule?
Answer: 2.20 days

Question: What about the mortality at 18 µg/mL (cabbage looper [3]; [7]) of the same molecule?
Answer: 8%

Question: And the mortality at 18 µg/mL (cabbage looper [3]; [8])?
Answer: 38%

Question: What about the mortality at 18 µg/mL (tobacco budworm [4]; [7]) of the same molecule?
Answer: 8%

Question: And the mortality at 18 µg/mL (tobacco budworm [4]; [8])?
Answer: 25%

Question: Which mortality at 100 µg/mL (western flower thrips; 24 h, isolate O333A4 1×10^5 cfu/mL, read-out: % Mortality (1DAT)) does the source give for `O=[N+]([O-])NC1=NCCN1Cc1ccc(Cl)nc1` [Imidacloprid] here?
Answer: 16%

Question: What about the mortality at 100 µg/mL (western flower thrips; 48 h, isolate O43NEW 1×10^5 cfu/mL, read-out: % Mortality (2DAT)) of the same molecule?
Answer: 29%

Question: What about the “LT50 (95% confidence intervals) in days” value (western flower thrips; isolate O43NEW 1×10^5 cfu/mL) of the same molecule?
Answer: 2.72 (2.40-3.08) days

Question: And the “LT50 (95% confidence intervals) in days” value (western flower thrips; isolate O333A4 1×10^5 cfu/mL)?
Answer: 2.72 (2.40-3.08) days

Question: What about the “% Mort. Chem.” value (western flower thrips; western flower thrips, 2 DAT (row with O43NEW)) of the same molecule?
Answer: 29%

Question: And the “% Mort. Chem.” value (western flower thrips; western flower thrips, 2 DAT (row with O333A4))?
Answer: 16%

Question: And the “LT50 Chem.” value (western flower thrips; western flower thrips, Imidacloprid alone 100 mg/L)?
Answer: 2.72 days

Question: What about the “LT50 (95% confidence intervals)” value (Colorado potato beetle [5]; 3rd instar Colorado potato beetle, O43NEW undiluted filtrate, alone or combined) of the same molecule?
Answer: 18.03 days

Question: What about the “LT50 Chem.” value (Colorado potato beetle [5]; Colorado potato beetle) of the same molecule?
Answer: 18.03 days

Question: And the “% Mort. Chem.” value (Colorado potato beetle [5]; Colorado potato beetle, 6 DAT)?
Answer: 5%

Question: What about the “LT50 (95% confidence intervals) in days” value (Colorado potato beetle [6]; 4th instar larva, imidacloprid 0.56 mg/L, isolate O43NEW 1×10^7 cfu/mL) of the same molecule?
Answer: 20.38 (15.79-27.60) days

Question: And the “% Mort. Chem.” value (Colorado potato beetle [6]; Colorado potato beetle, Imidacloprid 0.56 mg/L, 10 DAT)?
Answer: 17%

Question: What about the “LT50 Chem.” value (Colorado potato beetle [6]; Colorado potato beetle, Imidacloprid alone 0.56 mg/L) of the same molecule?
Answer: 20.38 days

Question: What about the mortality at 0.56 µg/mL (Colorado potato beetle [6]; 72 h, read-out: % Mortality (3DAT)) of the same molecule?
Answer: 0%

Question: And the mortality at 0.56 µg/mL (Colorado potato beetle [6]; 240 h, read-out: % Mortality (10DAT))?
Answer: 17%

Question: And the mortality at 0.56 µg/mL (Colorado potato beetle [6]; 312 h, read-out: % Mortality (13DAT))?
Answer: 7%
